Read-outs that look alike come from different tables or passages of the source. Where no end group is shown, it is not given here.
Columns and labels:
[1] = system: Phytophthora parasitica nicotiana; experiment: Antifungal growth inhibition bioassay (96-well, A600); format: cell-based
fungi and bacteria = experiment: Antifungal and antibacterial activity bioassays, results in words; format: cell-based; conditions: for antimicrobial / antifungal activity (in words): bioassays as in Example 2
Alternaria helianthi = conditions: Table 1, no added Ca2+
[2] = system: Clavibacter michiganensis; experiment: Antibacterial growth inhibition bioassay (96-well, A600); format: cell-based
Chalara elegans = experiment: Antifungal growth inhibition bioassay (96-well, A600); format: cell-based
Cercospora nicotianae = experiment: as above; format: cell-based
Ceratocystis paradoxa = experiment: as above; format: cell-based
Escherichia coli = experiment: Antibacterial growth inhibition bioassay (96-well, A600); format: cell-based
Phytophthora cryptogea = experiment: Antifungal growth inhibition bioassay (96-well, A600); format: cell-based
Candida albicans = experiment: as above; format: cell-based
Saccharomyces cerevisiae = experiment: as above; format: cell-based
[3] = system: Pseudomonas syringae tabaci; experiment: Antibacterial growth inhibition bioassay (96-well, A600); format: cell-based
Ralstonia solanacearum = format: cell-based
[4] = Table 1, 1 mM Ca2+ in test medium

MiAMP2c: 47-amino-acid antimicrobial protein purified from Macadamia integrifolia seeds; amino acids 118 to 164 of clone 3 (SEQ ID NO: 5) (RKQQKRYEEQQREDEEKYEERMKEGDNKRDPQQREYEDCRRHCEQQE; Partial mature peptide)
IC50 + Ca^2+ (Fusarium oxysporum; Table 1, Fusarium oxysporum, 1 mM Ca2+ in test medium): 20 to 50 µg/mL | IC50 values, Foc (Fusarium oxysporum; Table 2, Fusarium oxysporum, media A without added Ca2+): 10 µg/mL | IC50 + Ca^2+ [1, 4]: >50 µg/mL | IC50 (concentration at which 50% inhibition of growth was observed) ([1]; Table 1, no added Ca2+): 10 to 20 µg/mL | effect of Ca2+ on inhibitory activity (in words) (fungi and bacteria; 1 mM Ca2+ in the test medium): greatly reduced (although not eliminated) | IC50 (concentration at which 50% inhibition of growth was observed) (Alternaria helianthi): 5 to 10 µg/mL | IC50 + Ca^2+ (Verticillium dahliae; Table 1, Verticillium dahliae, 1 mM Ca2+ in test medium): >50 µg/mL | IC50 (concentration at which 50% inhibition of growth was observed) (Verticillium dahliae; Table 1, Verticillium dahliae, no added Ca2+): 5 to 10 µg/mL | IC50 values, Vd (Verticillium dahliae; Table 2, Verticillium dahliae, media A without added Ca2+): 5 to 10 µg/mL | IC50 + Ca^2+ [2, 4]: >50 µg/mL | IC50 (concentration at which 50% inhibition of growth was observed) ([2]; Table 1, no added Ca2+): 50 µg/mL | IC50 + Ca^2+ (Chalara elegans; [4]): 10 to 20 µg/mL | IC50 (concentration at which 50% inhibition of growth was observed) (Chalara elegans; Table 1, no added Ca2+): 2 to 5 µg/mL | IC50 + Ca^2+ (Cercospora nicotianae; [4]): 5 to 10 µg/mL | IC50 (concentration at which 50% inhibition of growth was observed) (Cercospora nicotianae; Table 1, no added Ca2+): 5 to 10 µg/mL | IC50 + Ca^2+ (Ceratocystis paradoxa; [4]): >50 µg/mL | IC50 (concentration at which 50% inhibition of growth was observed) (Ceratocystis paradoxa; Table 1, no added Ca2+): 20 to 50 µg/mL | IC50 values, Cp (Ceratocystis paradoxa; Table 2, media A without added Ca2+): 20 to 50 µg/mL | IC50 + Ca^2+ (Escherichia coli; [4]): >50 µg/mL | IC50 (concentration at which 50% inhibition of growth was observed) (Escherichia coli; Table 1, no added Ca2+): >50 µg/mL | IC50 + Ca^2+ (Phytophthora cryptogea; [4]): 10 to 25 µg/mL | IC50 (concentration at which 50% inhibition of growth was observed) (Phytophthora cryptogea; Table 1, no added Ca2+): 5 to 10 µg/mL | IC50 + Ca^2+ (Candida albicans; [4]): >50 µg/mL | IC50 (concentration at which 50% inhibition of growth was observed) (Candida albicans; Table 1, no added Ca2+): >50 µg/mL | IC50 + Ca^2+ (Saccharomyces cerevisiae; [4]): >50 µg/mL | IC50 (concentration at which 50% inhibition of growth was observed) (Saccharomyces cerevisiae; Table 1, no added Ca2+): 20 to 50 µg/mL | IC50 + Ca^2+ [3, 4]: >50 µg/mL | IC50 (concentration at which 50% inhibition of growth was observed) ([3]; Table 1, no added Ca2+): >50 µg/mL | IC50 + Ca^2+ (Ralstonia solanacearum; [4]): >50 µg/mL | IC50 (concentration at which 50% inhibition of growth was observed) (Ralstonia solanacearum; Table 1, no added Ca2+): >50 µg/mL | IC50 + Ca^2+ (Sclerotinia sclerotiorum; Table 1, Sclerotinia sclerotiorum, 1 mM Ca2+ in test medium): >50 µg/mL | IC50 (concentration at which 50% inhibition of growth was observed) (Sclerotinia sclerotiorum; Table 1, Sclerotinia sclerotiorum, no added Ca2+): 20 to 50 µg/mL | IC50 values, Ss (Sclerotinia sclerotiorum; Table 2, Sclerotinia sclerotiorum, media A without added Ca2+): 20 to 50 µg/mL

PRHMQIAQQRAERRAEKEKRKQQKR [MiAMP2c pep2]
IC50 values, Foc (Fusarium oxysporum): 10 to 20 µg/mL | antimicrobial / antifungal activity (in words) (fungi and bacteria): inhibitory activity against a variety of fungi | IC50 values, Vd (Verticillium dahliae): 10 to 20 µg/mL | IC50 values, Lm (Leptosphaeria maculans): 10 to 20 µg/mL | IC50 values, Ss (Sclerotinia sclerotiorum): 50 µg/mL

RQRDPQQQAEQAQKRAQRRETE [MiAMP2c pep1]
antimicrobial / antifungal activity (in words) (fungi and bacteria): little or no activity | IC50 values, Ss (Sclerotinia sclerotiorum): >50 µg/mL
